This is an account of results in US11685744B2, “CDK inhibitors and their use as pharmaceuticals” (Prelude Therapeutics, Incorporated, priority 2020, dated 2023).

Test [1] has as its system MCF7 adenocarcinoma cell line. The experiment in a line: Cell proliferation studies in MCF7 cells (ATP-Lite, 10 days). Type of test: cell-based. The following applies: Homo sapiens, 240 h, read-out: PROLIFERATION_CTG_MCF7 IC50. As for the experimental part: Cell Proliferation Studies in MCF7 Cells
Cell proliferation studies were conducted in MCF7 adenocarcinoma cell line. Cells were maintained in DMEM (Coming, Catalog #: 10-013-CV) supplemented with 10% v/v FBS (Gibco, Catalog #: 26140-079), 1% v/v Penicillin Streptomycin (Gibco, Catalog #15140-122) Cells were seeded in 384-well plates at a density of 100 or 200 cells/well. Compounds dissolved in DMSO were plated in quadruplicate using a digital dispenser (D300E, Tecan) and tested on a 9-point 3-fold serial dilution. Cells were incubated for 10 days in a 37° C. active humidified incubator at 5% CO2. A media exchange and second compound addition were performed on day 5. Cell viability was measured using the ATP-Lite 1-Step Luminescence reagent (Perkin Elmer, Catalog #: 6016731) as per manufacturer's instructions. Luminescence signal was measured with a multimode plate reader (Envision 2105, Perkin Elmer). Raw data files were imported to Dotmatics Screening Ultra for IC50 analysis. Luminescence values were normalized to both background and DMSO controls to obtain a percentage of viable cells relative to DMSO vehicle control.

The next test deals with CDK4/Cyclin D1 (Homo sapiens (Human), UniProt P11802). The experiment in a line: CDK4/CyclinD1 enzymatic activity assay (TR-FRET). The test is classed as biochemical. The conditions noted are these: ATP 2 mM, read-out: CDK4_D1 IC50. As for the experimental part:
CDK4/CyclinD1 Enzymatic Activity Assay
The inhibitory activity of compounds was evaluated in vitro using TR-FRET assay with white 384-well low volume microplate (Greiner Bio-One). CDK4/Cyclin D1 catalyzed phosphorylation of peptide in the presence and absence of compounds was measured. IC50 determination. Recombinant protein complex CDK4/Cyclin D1, expressed from insect cell, was purchased from ProQinase. Testing compounds were dissolved in DMSO at 0.1 mM and tested in 9-dose IC50 mode. The reaction mixture was prepared by mixing CDK4/CyclinD1 (1 nM final), ULight-4E-BP1 (100 nM final, Perkinelmer, TRF0128-D), and ATP (2 mM final) in assay buffer (20 mM of HEPES pH 7.4, 1 mM of EGTA, 0.05% BSA, 0.005% Tween 20, and 1 mM TCEP). The compound of interest in DMSO was added to each well in 3-fold serial dilution by dispenser (TECAN D300E). After 20 minutes preincubation at room temperature, MgCl2 (10 mM final) was added to initiate the reaction. Following a 60 minutes incubation at 37° C., the reaction was stopped by addition of 2 μL of quenching buffer consisting of Lance detection buffer (Perkinelmer CR97-100C), 2 nM LANCE Ultra Europium-anti-P-4E-BP1 (Perkinelmer, TRF0216-D), 10 mM EDTA, and incubate at room temperature for additional 60 minutes in dark. The reaction signal was measured by Envision multimode plate reader (PerkinElmer, 2102-0010). IC50 values were determined by fitting the data to the standard 4 parameters with Hill Slope using GraphPad Prism software.
In general terms: In TR-FRET formats the signal depends on donor and acceptor labels being close together.

Chain of CDK4/Cyclin D1 (P11802 whole entry): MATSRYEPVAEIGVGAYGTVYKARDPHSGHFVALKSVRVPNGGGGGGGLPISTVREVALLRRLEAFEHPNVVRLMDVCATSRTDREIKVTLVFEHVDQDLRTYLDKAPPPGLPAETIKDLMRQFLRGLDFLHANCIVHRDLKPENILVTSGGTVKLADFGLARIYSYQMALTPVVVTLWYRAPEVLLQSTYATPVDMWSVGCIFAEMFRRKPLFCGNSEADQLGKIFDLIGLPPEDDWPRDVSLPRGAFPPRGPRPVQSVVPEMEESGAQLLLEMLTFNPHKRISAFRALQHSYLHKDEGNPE
Chain of CDK4/Cyclin D1 (P24385 whole entry partner): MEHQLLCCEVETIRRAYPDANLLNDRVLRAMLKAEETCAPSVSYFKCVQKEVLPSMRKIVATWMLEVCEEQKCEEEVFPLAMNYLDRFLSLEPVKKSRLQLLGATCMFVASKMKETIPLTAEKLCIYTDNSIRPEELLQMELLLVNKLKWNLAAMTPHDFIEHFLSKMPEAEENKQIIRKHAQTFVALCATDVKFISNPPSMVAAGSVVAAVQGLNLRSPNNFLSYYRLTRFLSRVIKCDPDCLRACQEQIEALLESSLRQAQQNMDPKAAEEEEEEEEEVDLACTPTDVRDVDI

For `Cc1c(-c2nc(Nc3ccc(C4CC[C@H]5CN(C)C(=O)CN45)cn3)ncc2F)sc2c1nc(C)n2C(C)C` (single isomer, unassigned) [Example 118], the IC50 in test [1] was 200 to 2000 nM; at CDK4/Cyclin D1 it was at most 20 nM.
In the same order, the values of `CCN1CCC(c2ccc(Nc3ncc(F)c(-c4sc5c(nc(C)n5C5CCCC5)c4C)n3)nc2)CC1` [Example 5, 4-(3-Cyclopentyl-2,6-dimethyl-3H-thieno[2,3-d]imidazol-5-yl)-N-(5-(1-ethylpiperidin-4-yl)pyridin-2-yl)-5-fluoro-pyrimidin-2-amine] are 20 to 200 nM and 20 to 200 nM.
In the case of `Cc1c(-c2nc(Nc3ccc(C4CCN(C)CC4)cn3)ncc2F)sc2c1nc(C)n2C1CCCC1` [Example 6, 4-(3-Cyclopentyl-2,6-dimethyl-3H-thieno[2,3-d]imidazol-5-yl)-5-fluoro-N-(5-(1-methylpiperidin-4-yl)pyridin-2-yl)pyrimidin-2-amine], the IC50 in test [1] is 20 to 200 nM; at CDK4/Cyclin D1 it was at most 20 nM.
In the same order, the values of `Cc1c(-c2nc(Nc3ccc(N4CCN(C)CC4)cn3)ncc2F)sc2c1nc(C)n2C1CCCC1` [Example 7, 4-(3-Cyclopentyl-2,6-dimethyl-3H-thieno[2,3-d]imidazol-5-yl)-5-fluoro-N-(5-(4-methyl-piperazin-1-yl)pyridin-2-yl)pyrimidin-2-amine] are 20 to 200 nM and at most 20 nM.
For the molecule `CCN1CCN(Cc2ccc(Nc3ncc(F)c(-c4sc5c(nc(C)n5C5CCC5)c4C)n3)nc2)CC1` [Example 10, 4-(3-Cyclobutyl-2,6-dimethylthieno[2,3-d]imidazol-5-yl)-N-[5-[(4-ethylpiperazin-1-yl)methyl]pyridin-2-yl]-5-fluoropyrimidin-2-amine], the IC50 in test [1] was 200 to 2000 nM; at CDK4/Cyclin D1, at most 20 nM.
In the case of `CCN1CCN(Cc2ccc(Nc3ncc(F)c(-c4sc5c(nc(C)n5C5CCCC5)c4C)n3)nc2)CC1` [Example 12, 4-(3-Cyclopentyl-2,6-dimethyl-3H-thieno[2,3-d]imidazol-5-yl)-N-(5-((4-ethylpiperazin-1-yl)methyl)pyridin-2-yl)-5-fluoropyrimidin-2-amine], the IC50 at CDK4/Cyclin D1 lay in the range of 200 to 2000 nM.
As to `CCN1CC2(C1)CN(c1ccc(Nc3ncc(F)c(-c4cc5nccc(C6CCCC6)c5s4)n3)nc1)C2` [Example 15, 4-(7-Cyclopentylthieno[3,2-b]pyridin-2-yl)-N-[5-(6-ethyl-2,6-diazaspiro[3.3]heptan-2-yl)pyridin-2-yl]-5-fluoropyrimidin-2-amine], the IC50 at CDK4/Cyclin D1 is at most 20 nM.
The same measure, in the same setting: for `Cc1c(-c2nc(Nc3ccc(N4CCNCC4)cn3)ncc2F)sc2c(C3CCCC3)ccnc12` [Example 35, 4-(7-Cyclopentyl-3-methylthieno[3,2-b]pyridin-2-yl)-5-fluoro-N-(5-(piperazin-1-yl)pyridin-2-yl)pyrimidin-2-amine] the value was at most 20 nM; for `Cc1nc2cc(-c3nc(Nc4ccc(CN5CCC(C(=O)N(C)C)C5)cn4)ncc3F)sc2n1C(C)C` (stereo not shown) [Example 65, 1-[[6-[[5-Fluoro-4-(2-methyl-3-propan-2-ylthieno[2,3-d]imidazol-5-yl)pyrimidin-2-yl]amino]pyridin-3-yl]methyl]-N,N-dimethylpyrrolidine-3-carboxamide], 20 to 200 nM.
Consider `Cc1c(-c2nc(Nc3ccc(N4CC5(CN(C)CC5(F)F)C4)cn3)ncc2F)sc2c1nc(C)n2C(C)C` [Example 70, N-[5-(5,5-Difluoro-7-methyl-2,7-diazaspiro[3.4]octan-2-yl)pyridin-2-yl]-4-(2,6-dimethyl-3-propan-2-ylthieno[2,3-d]imidazol-5-yl)-5-fluoropyrimidin-2-amine], for which, on CDK4/Cyclin D1, the IC50 is at most 20 nM.
Same read-out and setting: the value for `Cc1c(-c2nc(Nc3ccc(N4CCC5(CCN(C)C5)C4)cn3)ncc2F)sc2c(C(C)C)cn(C)c(=O)c12` (stereo not shown) [Example 76, 2-(5-Fluoro-2-((5-(7-methyl-2,7-diazaspiro[4.4]nonan-2-yl)pyridin-2-yl)amino)pyrimidin-4-yl)-7-isopropyl-3,5-dimethylthieno[3,2-c]pyridin-4(5H)-one] was at most 20 nM; that for `CCN1CC2(C1)CN(c1ccc(Nc3ncc(F)c(-c4sc5c(C6CC6)n(C)nc5c4C)n3)nc1)C2` [Example 101, 4-(3-Cyclopropyl-2,6-dimethyl-2H-thieno[3,2-c]pyrazol-5-yl)-N-(5-(6-ethyl-2,6-diazaspiro[3.3]heptan-2-yl)pyridin-2-yl)-5-fluoropyrimidin-2-amine] was 20 to 200 nM.
Same read-out and setting: the value for `CCN1CCN(c2ccc(Nc3ncc(F)c(-c4sc5c(C(C)=O)n(C)nc5c4C)n3)nc2)CC1` [Example 103, 1-(5-(2-((5-(4-ethylpiperazin-1-yl)pyridin-2-yl)amino)-5-fluoropyrimidin-4-yl)-2,6-dimethyl-2H-thieno[3,2-c]pyrazol-3-yl)ethan-1-one] was 200 to 2000 nM; that for `CCN1CCN(c2ccc(Nc3ncc(F)c(-c4sc5c(C(C)O)n(C)nc5c4C)n3)nc2)CC1` (stereo not shown) [Example 104, 1-(5-(2-((5-(4-Ethylpiperazin-1-yl)pyridin-2-yl)amino)-5-fluoropyrimidin-4-yl)-2,6-dimethyl-2H-thieno[3,2-c]pyrazol-3-yl)ethan-1-ol] was 20 to 200 nM.
Same read-out and setting: for `CCN1CCN(c2ccc(Nc3ncc(F)c(-c4sc5c(C(C)C)nn(C)c5c4C)n3)nc2)CC1` [Example 106, 4-(1,6-Dimethyl-3-propan-2-ylthieno[3,2-c]pyrazol-5-yl)-N-[5-(4-ethylpiperazin-1-yl)pyridin-2-yl]-5-fluoropyrimidin-2-amine] the value was 200 to 2000 nM.
Turning to `Cc1nc2cc(-c3nc(Nc4cccnn4)ncc3F)sc2n1C(C)C` [Example 107, N-(5-Fluoro-4-(3-isopropyl-2-methyl-3H-thieno[2,3-d]imidazol-5-yl)pyrimidin-2-yl)pyridazin-3-amine], the IC50 at CDK4/Cyclin D1 is 20 to 200 nM.
The same measure, in the same setting: the value for `CN1CCC(c2ccc(Nc3ncc(F)c(-c4cc5c(=O)n(C)nc(C67CC(F)(C6)C7)c5s4)n3)nc2)CC1` [Example 110, 2-(5-Fluoro-2-((5-(1-methylpiperidin-4-yl)pyridin-2-yl)amino)pyrimidin-4-yl)-7-(3-fluorobicyclo[1.1.1]pentan-1-yl)-5-methylthieno[2,3-d]pyridazin-4(5H)-one] was 200 to 2000 nM; that for `CCN1CCN(c2cccc(Nc3ncc(F)c(-c4sc5c(nc(C)n5C(C)C)c4C)n3)n2)CC1` [Example 113, 4-(2,6-Dimethyl-3-propan-2-ylthieno[2,3-d]imidazol-5-yl)-N-[6-(4-ethylpiperazin-1-yl)pyridin-2-yl]-5-fluoropyrimidin-2-amine] was 200 to 2000 nM.
Same read-out and setting: the value for `CCN1CCN(C(C)c2ccc(Nc3ncc(F)c(-c4cc5nc(C)n(C(C)C)c5s4)n3)nc2)CC1` (stereo not shown) [Example 116, N-[5-[1-(4-Ethylpiperazin-1-yl)ethyl]pyridin-2-yl]-5-fluoro-4-(2-methyl-3-propan-2-ylthieno[2,3-d]imidazol-5-yl)pyrimidin-2-amine] was at most 20 nM; that for `Cc1nc2cc(-c3nc(Nc4ccc(C5C(=O)N(C)CCN5C)cn4)ncc3F)sc2n1C(C)C` (stereo not shown) [Example 117, 3-[6-[[5-Fluoro-4-(2-methyl-3-propan-2-ylthieno[2,3-d]imidazol-5-yl)pyrimidin-2-yl]amino]pyridin-3-yl]-1,4-dimethylpiperazin-2-one] was at most 20 nM.
The same measure, in the same setting: the value for `CCN1CCN(c2ccnc(Nc3ncc(F)c(-c4sc5c(nc(C)n5C(C)C)c4C)n3)c2)CC1` [Example 119, 4-(2,6-Dimethyl-3-propan-2-ylthieno[2,3-d]imidazol-5-yl)-N-[4-(4-ethylpiperazin-1-yl)pyridin-2-yl]-5-fluoropyrimidin-2-amine] was 200 to 2000 nM; that for `CCN1CCN(c2ccc(Nc3ncc(F)c(-c4sc5c(C(C)C)ccnc5c4C#N)n3)nc2)CC1` [Example 122, 2-(2-((5-(4-Ethylpiperazin-1-yl)pyridin-2-yl)amino)-5-fluoropyrimidin-4-yl)-7-isopropylthieno[3,2-b]pyridine-3-carbonitrile] was 20 to 200 nM; that for `COc1cnc(Nc2ccc(C3CCN(C)CC3)cn2)nc1-c1cc2nc(C)n(C(C)C)c2s1` [Example 127, 4-(3-Isopropyl-2-methyl-3H-thieno[2,3-d]imidazol-5-yl)-5-methoxy-N-(5-(1-methylpiperidin-4-yl)pyridin-2-yl)pyrimidin-2-amine] was 20 to 200 nM.
